Where a SMILES comes first, the peptide text is derived from it. [ ]: non-standard residue; d: D form. The star is where a group is joined. Stearoyl = CCCCCCCCCCCCCCCCCC(=O)*
Key:
IVC thrombosis = experiment: Inferior vena cava (IVC) thrombosis in rats; assay type: in vivo, rat
Protocol: Specifically, a laparotomy with ligation of the IVC below the renal veins and all visible side branches was first performed. 20 min or 5 hours after the administration of peptide or saline, the thrombosis in the IVC was carefully dissected and weighted after removing blood residual.

[1] = molecular target: T1, human serum albumin (HSA) (Homo sapiens, UniProt P02768); experiment: Surface plasmon resonance on surface-immobilized HSA; assay type: binding; conditions: HBS-EP buffer, 0.1-10 μM peptide
T1 construct: purchased Calbiochem (Merck, Germany)
Protocol: Briefly, HSA was first immobilized on CM5 sensor chips using the standard amine coupling protocol provided by manufacturer. The carboxymethylated dextran surface was then activated by injecting 45 μL of the solution containing 0.2 M N-ethyl-N’-(3-dimethylaminopropyl) carbodiimide hydrochloride and 0.05 M N-hydroxy succinimide. Subsequently, HSA and the control antibody were dissolved in 10 mM Na-citrate solution (pH 5.0, 50 μg/ml) and then injected until the desired amount of HSA and control antibody were coupled (8000 RUs). At this point, a buffer with higher ionic strength (HBS-EP, 0.01 M Hepes, pH = 7.4, 0.15 M NaCl, 3 mM EDTA, 0.005% surfactant) was used to wash off the ligands bound non-covalently. Finally, the 1 M ethanolamine hydrochloride solution (pH 8.5) was employed to cap the free NHS esters present on the sensor surface. […] All samples were injected onto the surface of HSA and control antibody over 3 minutes at a flow rate of 30 μL/min, followed by a dissociation period of 15 min. The 2.5 μM sample was subject to this protocol twice. Sensorgrams were obtained for each peptide concentration, respectively.

trypsin = molecular target: T2, trypsin (Bos taurus, UniProt P00760); experiment: Degradation mediated by trypsin (HPLC); assay type: in vitro ADME; conditions: trypsin (119 ng/μL) in Tris-HCl buffer, pH 8.5, 119 μg/ml trypsin, peptide 0.79 mM, 37 °C, read-out: peptide intact after incubation with trypsin
T2 construct: purchased Roche Corp (Indianapolis, USA)
T2 sequence (P00760 24-246): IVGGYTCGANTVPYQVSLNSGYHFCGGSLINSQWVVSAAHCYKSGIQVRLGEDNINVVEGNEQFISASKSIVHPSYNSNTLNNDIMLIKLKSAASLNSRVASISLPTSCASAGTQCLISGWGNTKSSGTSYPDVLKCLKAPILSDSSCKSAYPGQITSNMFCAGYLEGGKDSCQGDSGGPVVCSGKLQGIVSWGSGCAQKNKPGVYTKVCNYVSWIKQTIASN
Description: The degradation of peptides mediated by trypsin can be effectively monitored by HPLC analysis. […] The detector wavelength was set at 214 nm.

human thrombin = molecular target: T3, human thrombin (Homo sapiens, UniProt P00734); experiment: Degradation mediated by human thrombin (HPLC); assay type: in vitro ADME; conditions: human thrombin (69 NIH/mL) in Tris-HCl buffer, pH 8, 69 NIH/ml human thrombin, peptide 0.41 mM, 37 °C, read-out: peptide remained after reaction with human thrombin
T3 construct: purchased National Institute for the Control of Pharmaceutical and Biological Products (Beijing, China)
Protocol: The catalytic cleavage of peptides mediated by thrombin was also examined using the same method. Specifically, a peptide solution (0.41 mM) was first incubated with thrombin (69 NIH/mL) in Tris-HCl buffer (70 mM Tris HCl, NaCl 50 mM, pH = 8.0) at 37 °C.

T1 sequence (P02768 25-609): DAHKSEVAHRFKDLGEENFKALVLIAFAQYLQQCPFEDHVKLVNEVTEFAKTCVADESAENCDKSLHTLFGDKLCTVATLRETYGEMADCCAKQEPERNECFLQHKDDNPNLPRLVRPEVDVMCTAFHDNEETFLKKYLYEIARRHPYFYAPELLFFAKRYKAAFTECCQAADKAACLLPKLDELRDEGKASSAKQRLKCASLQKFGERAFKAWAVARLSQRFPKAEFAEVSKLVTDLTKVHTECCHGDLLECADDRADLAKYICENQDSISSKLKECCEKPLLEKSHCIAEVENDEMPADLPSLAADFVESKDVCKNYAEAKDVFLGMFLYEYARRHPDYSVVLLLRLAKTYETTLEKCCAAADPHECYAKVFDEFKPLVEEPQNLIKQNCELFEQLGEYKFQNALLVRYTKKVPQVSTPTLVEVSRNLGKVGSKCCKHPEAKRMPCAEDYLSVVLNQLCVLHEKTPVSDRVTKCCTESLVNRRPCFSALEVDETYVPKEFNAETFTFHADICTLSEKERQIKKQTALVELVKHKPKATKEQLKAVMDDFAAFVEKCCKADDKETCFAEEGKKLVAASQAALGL

Compound: CCCCCCCCCCCCCCCCCC(=O)NCCCC[C@H](NC(=O)CNC(=O)[C@@H]1CCCN1C(=O)[C@H](CCCNC(=N)N)NC(=O)[C@@H]1CCCN1C(=O)[C@H](N)Cc1ccccc1)C(=O)NCC(=O)NCC(=O)N[C@@H](CCC(N)=O)C(=O)NCC(=O)N[C@@H](CC(=O)O)C(=O)N[C@@H](Cc1ccccc1)C(=O)N[C@@H](CCC(=O)O)C(=O)N1CCC[C@H]1C(=O)N[C@H](C(=O)N1CCC[C@H]1C(=O)N[C@@H](CCC(=O)O)C(=O)N[C@@H](CC(=O)O)C(=O)N[C@@H](C)C(=O)N[C@@H](Cc1ccc(O)cc1)C(=O)N[C@@H](CC(=O)O)C(=O)N[C@@H](CCC(=O)O)C(N)=O)[C@@H](C)CC [Peptide S2] (H-[dF]PRPGK(Stearoyl)GGQGDFEPIPEDAYDE-NH2; N-terminus assumed)
- Weight of wet thrombosis (IVC thrombosis; 0.27 mg/kg (0.1 μmol/kg), 300 min after administration): 1.7 ± 0.2 mg
- Weight of wet thrombosis (IVC thrombosis; 0.81 mg/kg (0.3 μmol/kg), 300 min after administration): 0 mg
- Weight of wet thrombosis (IVC thrombosis; 1.61 mg/kg (0.6 μmol/kg), 300 min after administration): 0 mg
- Weight of wet thrombosis (IVC thrombosis; 2.69 mg/kg (1.0 μmol/kg), 20 min after administration): 1.3 ± 1.8 mg
- Weight of wet thrombosis (IVC thrombosis; 2.69 mg/kg (1.0 μmol/kg), 300 min after administration): 0 mg
- binding to surface-immobilized HSA (SPR) [1]: weakly bind to HSA
- remaining at 3 h, 0.79 mM (trypsin; 3 h): 39%
- remaining at 5 h, 0.79 mM (trypsin; 5 h): 23%
- remaining at 3 h, 0.41 mM (human thrombin; 3 h): 93%
- remaining at 5 h, 0.41 mM (human thrombin; 5 h): 69%

Source: PMC4585835 (Scientific Reports, 2015)
